Measured values as given in US12428408B2, “Fused heterocyclic mescaline derivatives” (Enveric Biosciences Canada Inc., priority 2022, dated 2025).
pKi: −log10 of the molar value. Read-outs that look alike come from different tables or passages of the source.

Experiments:
5-HT2B (h) = target: T1, 5-HT2B (h) (Homo sapiens, UniProt P41595); experiment: Competition assay to measure binding affinity at 5-HT2B receptor; settings: test ligand 10 μM; [3H]mesulergine 2 nM
T1 construct: host or cells: CHO cells

MT1 (ML1A) (h) = target: T2, MT1 (ML1A) (h) (Homo sapiens, UniProt P48039); experiment: Competition assay to measure binding affinity at MT1 receptor; settings: test ligand 10 μM; [125I]2-iodomelatonin 0.01 nM
T2 construct: host or cells: CHO cells
T2 sequence (P48039 whole entry): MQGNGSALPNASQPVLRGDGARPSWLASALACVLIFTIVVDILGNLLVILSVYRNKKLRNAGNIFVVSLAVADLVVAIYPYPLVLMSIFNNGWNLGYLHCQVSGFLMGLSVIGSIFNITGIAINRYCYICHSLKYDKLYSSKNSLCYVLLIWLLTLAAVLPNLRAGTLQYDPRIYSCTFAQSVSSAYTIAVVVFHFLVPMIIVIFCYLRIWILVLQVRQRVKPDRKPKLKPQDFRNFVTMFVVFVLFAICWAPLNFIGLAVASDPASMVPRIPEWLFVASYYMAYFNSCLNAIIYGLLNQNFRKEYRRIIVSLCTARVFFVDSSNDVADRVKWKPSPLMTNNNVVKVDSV

D2 (h) = target: T3, D2 (h) (Homo sapiens, UniProt P14416); experiment: Competition assay to measure binding affinity at D2L receptor; settings: test ligand 10 μM; [3H]methylspiperone 0.3 nM
T3 construct: host or cells: HEK-293 cells
T3 sequence (P14416 whole entry): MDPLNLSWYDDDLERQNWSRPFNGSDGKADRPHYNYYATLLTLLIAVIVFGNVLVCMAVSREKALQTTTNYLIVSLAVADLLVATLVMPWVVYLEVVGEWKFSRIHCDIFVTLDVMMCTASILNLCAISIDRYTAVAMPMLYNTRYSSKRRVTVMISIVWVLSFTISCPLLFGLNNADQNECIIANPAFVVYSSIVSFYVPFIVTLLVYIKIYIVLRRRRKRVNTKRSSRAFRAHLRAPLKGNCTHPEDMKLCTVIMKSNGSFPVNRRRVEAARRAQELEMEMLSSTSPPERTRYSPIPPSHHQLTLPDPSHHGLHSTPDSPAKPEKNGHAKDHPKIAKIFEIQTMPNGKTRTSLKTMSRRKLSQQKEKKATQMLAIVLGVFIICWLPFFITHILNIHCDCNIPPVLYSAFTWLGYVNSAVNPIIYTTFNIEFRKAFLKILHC

5-HT2C (h) = target: T4, 5-HT2C (h) (Homo sapiens, UniProt P28335); experiment: Competition assay to measure binding affinity at 5-HT2C receptor; settings: test ligand 10 μM; [125I](±)DOI 0.1 nM
T4 construct: host or cells: HEK-293 cells
T4 sequence (P28335 33-458): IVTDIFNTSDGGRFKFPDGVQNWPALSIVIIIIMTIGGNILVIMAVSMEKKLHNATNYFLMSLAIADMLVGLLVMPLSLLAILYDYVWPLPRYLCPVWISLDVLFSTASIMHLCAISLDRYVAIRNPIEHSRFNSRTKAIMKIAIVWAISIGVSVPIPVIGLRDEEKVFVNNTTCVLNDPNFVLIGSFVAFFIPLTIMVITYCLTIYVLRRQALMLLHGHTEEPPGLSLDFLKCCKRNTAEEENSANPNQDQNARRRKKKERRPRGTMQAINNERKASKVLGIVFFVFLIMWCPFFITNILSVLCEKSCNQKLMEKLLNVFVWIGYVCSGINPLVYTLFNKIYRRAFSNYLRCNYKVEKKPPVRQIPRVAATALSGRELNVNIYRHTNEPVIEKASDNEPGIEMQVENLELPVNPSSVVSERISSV

alpha2A (h) = target: T5, alpha2A (h) (Homo sapiens, UniProt P08913); experiment: Competition assay to measure binding affinity at alpha2A receptor; settings: test ligand 10 μM; [3H]RX 821002 1 nM; read-out: α-2A, percent of control-specific binding
T5 construct: host or cells: CHO cells
T5 sequence (P08913 1-465): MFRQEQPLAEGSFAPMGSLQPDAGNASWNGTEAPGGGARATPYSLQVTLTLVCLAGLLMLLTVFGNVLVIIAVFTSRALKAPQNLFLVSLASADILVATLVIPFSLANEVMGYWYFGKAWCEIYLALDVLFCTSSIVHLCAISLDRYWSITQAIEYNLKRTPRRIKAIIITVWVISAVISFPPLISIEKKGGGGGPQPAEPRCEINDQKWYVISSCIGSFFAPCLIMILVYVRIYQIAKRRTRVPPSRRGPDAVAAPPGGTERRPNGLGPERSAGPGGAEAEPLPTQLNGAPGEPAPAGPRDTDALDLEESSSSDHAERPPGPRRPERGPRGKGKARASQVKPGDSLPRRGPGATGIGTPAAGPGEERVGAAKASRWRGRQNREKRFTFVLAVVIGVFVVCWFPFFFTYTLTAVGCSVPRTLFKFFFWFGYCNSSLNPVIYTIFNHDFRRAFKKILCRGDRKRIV

5-HT1A receptor [1] = target: T6, 5-HT1A receptor (Homo sapiens, UniProt P08908); experiment: Functional 5-HT1A receptor cAMP assay in CHO-K1/5-HT1A/Gα15 cells; assay type: cell-based; settings: +5-HT1A cells, 4 μM forskolin, FIGS. 37B-37H
T6 construct: purchased Perkin Elmer 6110501400UA
T6 sequence (P08908 1-422): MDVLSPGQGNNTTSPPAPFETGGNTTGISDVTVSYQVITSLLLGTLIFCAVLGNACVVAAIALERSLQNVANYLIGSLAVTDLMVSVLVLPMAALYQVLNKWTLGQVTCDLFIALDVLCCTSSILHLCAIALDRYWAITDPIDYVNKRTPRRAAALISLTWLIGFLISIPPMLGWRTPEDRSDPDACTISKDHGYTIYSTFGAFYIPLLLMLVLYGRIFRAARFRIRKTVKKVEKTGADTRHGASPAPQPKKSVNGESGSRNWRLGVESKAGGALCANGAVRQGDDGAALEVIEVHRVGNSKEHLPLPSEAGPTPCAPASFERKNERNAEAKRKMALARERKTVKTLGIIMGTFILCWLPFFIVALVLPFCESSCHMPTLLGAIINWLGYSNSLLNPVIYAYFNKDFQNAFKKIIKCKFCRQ

5-HT1B (h) = target: T7, 5-HT1B (h) (Homo sapiens, UniProt P28222); experiment: Competition assay to measure binding affinity at 5-HT1B receptor; settings: test ligand 10 μM; [3H]GR125743 1 nM
T7 construct: host or cells: Chem-1 (RBL) cells
T7 sequence (P28222 whole entry): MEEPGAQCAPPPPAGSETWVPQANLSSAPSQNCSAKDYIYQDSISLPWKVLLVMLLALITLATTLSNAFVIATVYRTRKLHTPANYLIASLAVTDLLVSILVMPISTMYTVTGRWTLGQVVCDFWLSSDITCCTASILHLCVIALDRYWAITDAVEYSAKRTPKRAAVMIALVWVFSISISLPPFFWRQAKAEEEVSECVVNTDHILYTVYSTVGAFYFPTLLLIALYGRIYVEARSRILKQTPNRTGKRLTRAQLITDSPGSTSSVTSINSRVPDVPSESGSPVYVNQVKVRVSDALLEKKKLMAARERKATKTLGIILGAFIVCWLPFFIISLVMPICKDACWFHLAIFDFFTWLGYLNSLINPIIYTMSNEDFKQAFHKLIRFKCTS

5-HT1D (r) = target: T8, 5-HT1D (r) (Rattus norvegicus, UniProt P28565); experiment: Competition assay to measure binding affinity at 5-HT1D receptor; settings: test ligand 10 μM; [3H]serotonin 1 nM
T8 construct: host or cells: CHO cells
T8 sequence (P28565 whole entry): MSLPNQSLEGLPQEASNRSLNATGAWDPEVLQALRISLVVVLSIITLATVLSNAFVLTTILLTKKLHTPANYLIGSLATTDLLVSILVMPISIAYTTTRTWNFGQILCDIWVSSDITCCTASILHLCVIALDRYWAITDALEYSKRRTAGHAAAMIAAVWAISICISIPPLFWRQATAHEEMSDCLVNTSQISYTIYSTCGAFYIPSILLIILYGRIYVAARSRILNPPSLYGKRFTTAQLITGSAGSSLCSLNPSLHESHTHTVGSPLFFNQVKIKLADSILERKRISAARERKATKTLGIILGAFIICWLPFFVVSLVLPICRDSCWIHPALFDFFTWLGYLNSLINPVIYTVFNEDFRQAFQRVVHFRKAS

D3 (h) = target: T9, D3 (h) (Homo sapiens, UniProt P35462); experiment: Competition assay to measure binding affinity at D3 receptor; settings: test ligand 10 μM; [3H]methylspiperone […]
T9 construct: host or cells: CHO cells
T9 sequence (P35462 whole entry): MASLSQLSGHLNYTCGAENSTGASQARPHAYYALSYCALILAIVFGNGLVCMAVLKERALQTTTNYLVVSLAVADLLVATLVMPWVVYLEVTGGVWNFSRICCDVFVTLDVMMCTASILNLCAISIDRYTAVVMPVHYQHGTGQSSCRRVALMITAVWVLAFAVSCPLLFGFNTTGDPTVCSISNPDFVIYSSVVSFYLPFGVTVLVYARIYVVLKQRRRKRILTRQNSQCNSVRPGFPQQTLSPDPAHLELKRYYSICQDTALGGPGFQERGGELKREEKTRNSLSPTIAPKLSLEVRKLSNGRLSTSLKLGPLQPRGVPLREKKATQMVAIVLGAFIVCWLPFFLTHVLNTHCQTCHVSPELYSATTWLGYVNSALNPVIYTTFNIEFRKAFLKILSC

DAT (h) = target: T10, DAT (h) (Homo sapiens, UniProt Q01959); experiment: Competition assay to measure binding affinity at dopamine transporter (DAT); settings: test ligand 10 μM; [3H]BTCP 4 nM
T10 construct: host or cells: CHO cells
T10 sequence (Q01959 whole entry): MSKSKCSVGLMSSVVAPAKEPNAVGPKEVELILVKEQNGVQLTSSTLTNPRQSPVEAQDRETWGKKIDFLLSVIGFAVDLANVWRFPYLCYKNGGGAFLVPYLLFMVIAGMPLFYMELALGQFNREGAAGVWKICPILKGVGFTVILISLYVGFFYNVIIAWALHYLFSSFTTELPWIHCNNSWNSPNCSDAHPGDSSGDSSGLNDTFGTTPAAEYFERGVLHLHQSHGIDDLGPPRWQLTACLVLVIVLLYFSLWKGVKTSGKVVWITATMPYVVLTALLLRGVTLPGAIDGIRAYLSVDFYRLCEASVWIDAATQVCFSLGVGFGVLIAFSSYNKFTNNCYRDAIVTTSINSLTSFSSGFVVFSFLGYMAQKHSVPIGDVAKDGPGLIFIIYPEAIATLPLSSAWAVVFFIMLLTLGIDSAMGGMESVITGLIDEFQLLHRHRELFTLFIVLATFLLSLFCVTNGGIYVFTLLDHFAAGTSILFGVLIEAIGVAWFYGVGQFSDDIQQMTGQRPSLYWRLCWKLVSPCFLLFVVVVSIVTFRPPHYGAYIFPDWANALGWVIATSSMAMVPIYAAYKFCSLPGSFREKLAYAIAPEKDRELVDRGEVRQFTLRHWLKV

[2] = target: T11, human serotonin transporter (SERT) (Homo sapiens, UniProt P31645); experiment: biochemical; assay type: binding
T11 construct: purchased PerkinElmer RBHSTM400UA
T11 sequence (P31645 whole entry): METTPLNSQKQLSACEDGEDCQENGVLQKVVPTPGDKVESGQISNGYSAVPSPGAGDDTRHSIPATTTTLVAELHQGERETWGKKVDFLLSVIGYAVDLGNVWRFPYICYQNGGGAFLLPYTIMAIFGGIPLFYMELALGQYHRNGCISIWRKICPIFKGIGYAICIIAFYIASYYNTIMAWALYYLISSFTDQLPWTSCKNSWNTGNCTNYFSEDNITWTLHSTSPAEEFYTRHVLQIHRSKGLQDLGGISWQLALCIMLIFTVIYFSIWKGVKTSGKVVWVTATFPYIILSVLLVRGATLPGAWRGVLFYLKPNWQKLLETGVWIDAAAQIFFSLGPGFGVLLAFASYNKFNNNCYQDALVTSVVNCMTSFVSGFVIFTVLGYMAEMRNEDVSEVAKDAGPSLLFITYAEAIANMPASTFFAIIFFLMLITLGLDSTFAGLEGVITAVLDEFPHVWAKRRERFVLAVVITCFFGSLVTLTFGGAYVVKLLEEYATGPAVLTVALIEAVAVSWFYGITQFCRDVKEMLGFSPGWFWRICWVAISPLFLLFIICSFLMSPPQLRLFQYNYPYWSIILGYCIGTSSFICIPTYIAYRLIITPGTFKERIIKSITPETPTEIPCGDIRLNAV

NET (h) = target: T12, NET (h) (Homo sapiens, UniProt P23975); experiment: Competition assay to measure binding affinity at norepinephrine transporter (NET); settings: test ligand 10 μM; [3H]nisoxetine 1 nM
T12 construct: host or cells: CHO cells
T12 sequence (P23975 whole entry): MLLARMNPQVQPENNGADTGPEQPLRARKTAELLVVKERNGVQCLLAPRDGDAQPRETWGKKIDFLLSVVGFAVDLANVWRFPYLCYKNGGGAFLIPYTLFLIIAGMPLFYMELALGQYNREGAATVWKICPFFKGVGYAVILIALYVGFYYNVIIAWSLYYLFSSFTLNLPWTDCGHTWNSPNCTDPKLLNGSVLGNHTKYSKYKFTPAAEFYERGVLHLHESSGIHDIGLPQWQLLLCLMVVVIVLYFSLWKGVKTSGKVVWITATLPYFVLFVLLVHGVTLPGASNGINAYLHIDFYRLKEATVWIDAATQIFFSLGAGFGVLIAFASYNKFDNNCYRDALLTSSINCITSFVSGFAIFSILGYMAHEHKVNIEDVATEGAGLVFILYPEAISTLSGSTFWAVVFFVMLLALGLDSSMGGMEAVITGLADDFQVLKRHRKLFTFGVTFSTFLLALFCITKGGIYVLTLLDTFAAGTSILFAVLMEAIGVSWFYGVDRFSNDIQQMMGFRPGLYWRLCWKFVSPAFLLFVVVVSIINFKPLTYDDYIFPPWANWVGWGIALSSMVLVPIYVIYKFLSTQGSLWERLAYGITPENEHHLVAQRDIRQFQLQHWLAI

5-HT7 (h) = target: T13, 5-HT7 (h) (Homo sapiens, UniProt P34969); experiment: Competition assay to measure binding affinity at 5-HT7 receptor; settings: test ligand 10 μM; [3H]LSD 4 nM
T13 construct: host or cells: HEK-293 cells
T13 sequence (P34969 whole entry): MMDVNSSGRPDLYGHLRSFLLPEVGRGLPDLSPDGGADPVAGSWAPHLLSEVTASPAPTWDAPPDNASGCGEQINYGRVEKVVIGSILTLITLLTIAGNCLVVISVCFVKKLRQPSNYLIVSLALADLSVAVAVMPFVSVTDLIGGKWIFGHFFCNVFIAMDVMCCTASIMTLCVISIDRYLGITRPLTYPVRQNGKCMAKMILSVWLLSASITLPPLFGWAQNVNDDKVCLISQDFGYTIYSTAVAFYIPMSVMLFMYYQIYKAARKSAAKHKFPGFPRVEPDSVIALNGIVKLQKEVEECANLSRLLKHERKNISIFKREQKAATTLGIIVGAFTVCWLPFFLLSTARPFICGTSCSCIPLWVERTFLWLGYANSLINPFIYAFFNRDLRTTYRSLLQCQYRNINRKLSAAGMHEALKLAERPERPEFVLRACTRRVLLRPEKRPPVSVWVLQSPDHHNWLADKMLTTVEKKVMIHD

5-HT1A receptor [3] = target: T6, 5-HT1A receptor; experiment: 5-HT1A receptor radioligand competition assay (SPA); assay type: binding
5-HT2A receptor = 5-HT2A receptor (Homo sapiens, UniProt P28223); experiment: 5-HT2A receptor radioligand competition assay (SPA)
Sequence of 5-HT2A receptor (P28223 whole entry): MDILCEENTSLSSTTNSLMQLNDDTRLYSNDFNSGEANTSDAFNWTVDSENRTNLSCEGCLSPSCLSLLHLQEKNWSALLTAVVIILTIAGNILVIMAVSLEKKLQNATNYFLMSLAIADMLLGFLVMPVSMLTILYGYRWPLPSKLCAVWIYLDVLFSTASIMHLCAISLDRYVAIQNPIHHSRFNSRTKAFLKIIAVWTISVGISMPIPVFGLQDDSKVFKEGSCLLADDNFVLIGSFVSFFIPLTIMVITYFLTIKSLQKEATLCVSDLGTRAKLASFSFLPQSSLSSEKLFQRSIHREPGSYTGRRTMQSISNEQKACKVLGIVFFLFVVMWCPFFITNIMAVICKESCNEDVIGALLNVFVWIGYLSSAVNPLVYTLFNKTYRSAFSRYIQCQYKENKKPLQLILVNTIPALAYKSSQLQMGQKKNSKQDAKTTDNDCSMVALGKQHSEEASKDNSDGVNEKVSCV

[4] = competition with 0.5 nM 8-hydroxy-DPAT [3H], test compound 3 nM to 1 mM, read-out: 5-HT1A, Ki

Compound	HT2B, percent of control-specific binding (5-HT2B (h))	MT1, percent of control-specific binding (MT1 (ML1A) (h))	D2, percent of control-specific binding (D2 (h))	HT2C, percent of control-specific binding (5-HT2C (h))	inhibition at 10 µM (alpha2A (h))	5-HT1A receptor engagement (change in cAMP levels), in words (5-HT1A receptor [1])	HT1B, percent of control-specific binding (5-HT1B (h))	HT1D, percent of control-specific binding (5-HT1D (r))	D3, percent of control-specific binding (D3 (h))	DAT, percent of control-specific binding (DAT (h))	pKi [2]	SERT binding, binding curve in words [2]	NET, percent of control-specific binding (NET (h))	HT7, percent of control-specific binding (5-HT7 (h))	pKi (5-HT1A receptor [3])	pKi (5-HT2A receptor)	pKi (5-HT1A receptor [3]; [4])
COc1cc(CCN)cc(OC)c1OC [mescaline, 3,4,5 trimethoxyphenethylamine]	80%	6%	3%	95%	57%	no	11%	70%	−13%	−1%	3.39	SERT binding at higher ligand concentrations	−9%				
CN(C)CCc1c[nH]c2cccc(O)c12 [psilocin]						reduction in cAMP levels											
CC(Cc1ccc2c(c1)OCCO2)NCc1ccc2c(c1)OCCO2 (centres unmarked) [A(XIII)]	85%	12%	28%	34%	77%		11%	38%	54%	90%	5.54		50%	52%	5.82	3.99	
CC(Cc1ccc2c(c1)OCCO2)NCc1cc2c(cc1Br)OCCO2 (centres unmarked) [A(XI)]	94%	15%	40%	63%	92%		7%	31%	36%	47%	6.72		64%	62%	6.29	5.15	
CC(C)(C)OC(=O)NC1CN(CCc2ccc3c(c2)OCO3)C1 [A(XV)]	58%	0%	0%	36%	6%		1%	29%	53%	39%	4.19		11%	58%		4.07	5.51
O=C(Cc1cc2c(cc1Br)OCO2)NCCO [A(XIX)]	7%	15%	0%	22%	10%		0%	0%	0%	0%	< 3.00		0%	1%		4.73	3.23
CC(Cc1ccc2c(c1)OCCO2)NCc1cc2c(cc1Br)OCO2 (centres unmarked) [A(IX)]	97%	24%	35%	88%	82%		1%	83%	45%	75%	6.65		47%	72%	6.01	4.72	
NCCc1c[nH]c2ccc(O)cc12 [serotonin, reference compound]		7%	15%		18%	reduction in cAMP levels	97%	101%	73%	8%			−3%				
COc1cc2c(cc1CC(=O)N1CCCC1)OCO2 [A(XXI)]	33%	7%	0%	32%	0%		0%	14%	7%	29%	3.07		0%	20%		3.47	4.15
